From ChEMBL document CHEMBL1150740, “Studies on inhibitors of skin-tumor promotion, I. Inhibitory effects of triterpenes from Euptelea polyandra on Epstein-Barr virus activation” (J Nat Prod, 1987)

Columns and labels:
Type in all cases: cell-based
Raji [1] = assay: Inhibition of TPA-induced EBV-early antigen activation in human Raji cells assessed as early antigen activation at 10 mol ratio after 48 hrs relative to TPA; settings: human gammaherpesvirus 4
[2] = Cytotoxicity against human Raji cells assessed as cell viability at 5000 mol ratio after 48 hrs relative to TPA; settings: read-out: Activity
Raji [3] = assay: Inhibition of TPA-induced EBV-early antigen activation in human Raji cells assessed as early antigen activation at 1000 mol ratio after 48 hrs relative to TPA; parameters: scale not given: the % may be the effect or the level left; settings: human gammaherpesvirus 4
[4] = Cytotoxicity against human Raji cells assessed as cell viability at 100 mol ratio after 48 hrs relative to TPA; settings: read-out: Activity
Raji [5] = assay: Inhibition of TPA-induced EBV-early antigen activation in human Raji cells assessed as early antigen activation at 100 mol ratio after 48 hrs relative to TPA; settings: human gammaherpesvirus 4
Raji [6] = assay: Inhibition of TPA-induced EBV-early antigen activation in human Raji cells assessed as early antigen activation at 5000 mol ratio after 48 hrs relative to TPA; parameters: scale not given: the % may be the effect or the level left; settings: human gammaherpesvirus 4
[7] = Cytotoxicity against human Raji cells assessed as cell viability at 10 mol ratio after 48 hrs relative to TPA; settings: read-out: Activity
Raji [8] = assay: Inhibition of EBV-early antigen activation in human Raji cells assessed as early antigen activation at 1 uM ratio after 48 hrs; parameters: scale not given: the % may be the effect or the level left
[9] = Cytotoxicity against human Raji cells assessed as cell viability at 1000 mol ratio after 48 hrs relative to TPA; settings: read-out: Activity

| Compound | EBV-EA activation relative to TPA (Raji [1]) | viability at 48 h, 5000 mol ratio relative to TPA [2] | Activity (Raji [3]) | viability at 48 h, 100 mol ratio relative to TPA [4] | EBV early antigen activation relative to TPA (Raji [5]) | Activity (Raji [6]) | viability at 48 h, 10 mol ratio relative to TPA [7] | Activity (Raji [8]) | viability at 48 h, 1000 mol ratio relative to TPA [9] |
| --- | --- | --- | --- | --- | --- | --- | --- | --- | --- |
| C=C(C)[C@@H]1CC[C@]2(C(=O)O)CC[C@]3(C)[C@H](CC[C@@H]4[C@@]5(C)CC[C@H](OC(C)=O)C(C)(C)[C@@H]5CC[C@]43C)[C@@H]12 | 100% | 80% | 0% | 80% | 55.1% | 0% | 100% | 0% | 80% |
| CC1(C)CC[C@]2(C)CC[C@]3(C)C(=CC[C@@H]4[C@@]5(C)C(=O)CC(=O)C(C)(C)[C@@H]5CC[C@]43C)[C@@H]2C1 | 100% | 0% | 0% | 100% | 100% | 0% | 100% | 0% | 20% |
| CC(=O)O[C@H]1CC[C@]2(C)[C@H]3CC=C4[C@@H]5CC(C)(C)CC[C@]5(CO)CC[C@@]4(C)[C@]3(C)CC[C@H]2C1(C)C | 100% | 40% | 32.3% | > 80% | 59.4% | 0% | 100% | 0% | 70% |
| CC(=O)O[C@H]1CC[C@]2(C)[C@H]3CC=C4[C@@H]5CC(C)(C)CC[C@]5(C=O)CC[C@@]4(C)[C@]3(C)CC[C@H]2C1(C)C | 100% | 40% | 100% | 100% | 100% | 0% | 100% | 0% | 100% |
| CC(=O)OC[C@]12CCC(C)(C)C[C@H]1C1=CC[C@@H]3[C@@]4(C)CC[C@H](OC(C)=O)C(C)(C)[C@@H]4CC[C@@]3(C)[C@]1(C)CC2 | 100% | 50% | 100% | 100% | 100% | 0% | 100% | 0% | 100% |
| CC(=O)O[C@@H]1C[C@]2(C)[C@H]3CC=C4[C@@H]5CC(C)(C)CC[C@]5(C(=O)O)CC[C@@]4(C)[C@]3(C)CC[C@H]2C(C)(C)[C@H]1OC(C)=O | 100% | 0% | 0% | 70% | 59.6% | 0% | 100% | 0% | 20% |
| CC(=O)O[C@H]1CC[C@]2(C)[C@H]3CC=C4[C@@H]5CC(C)(C)CC[C@]5(C(=O)O)CC[C@@]4(C)[C@]3(C)CC[C@H]2C1(C)C [ACETYL OLEANOLIC ACID] | 100% | 50% | 36.4% | 100% | 100% | 0% | 100% | 1.6% | 80% |
| C=C(C)[C@@H]1CC[C@]2(C(=O)O)CC[C@]3(C)[C@H](CC[C@@H]4[C@@]5(C)CC[C@H](O)C(C)(C)[C@@H]5CC[C@]43C)[C@@H]12 [BETULINIC ACID] |  | 20% | 80% | 100% | 100% | 0% | 100% | 0% | > 80% |
| C=C(C)[C@@H]1CC[C@]2(CO)CC[C@]3(C)[C@H](CC[C@@H]4[C@@]5(C)CC[C@H](O)C(C)(C)[C@@H]5CC[C@]43C)[C@@H]12 [BETULIN] | 100% | 80% | 100% | 100% | 100% | 0% | 100% | 1.6% | 100% |
| CC1(C)CC[C@]2(CO)CC[C@]3(C)C(=CC[C@@H]4[C@@]5(C)CC[C@H](O)C(C)(C)[C@@H]5CC[C@]43C)[C@@H]2C1 [ERYTHRODIOL] | 100% | 10% | 19.3% | > 80% | 71.7% | 0% | 100% | 0% | 50% |
| C=C(C)[C@@H]1CC[C@]2(C)CC[C@]3(C)[C@H](CC[C@@H]4[C@@]5(C)CC[C@H](OC(C)=O)C(C)(C)[C@@H]5CC[C@]43C)[C@@H]12 [LUPENYL ACETATE] | 100% | 60% | 81.8% | 100% | 100% | 0% | 100% | 0% | 80% |
| COC(=O)[C@]12CCC(C)(C)C[C@H]1C1=CC[C@@H]3[C@@]4(C)C[C@@H](O)[C@H](O)C(C)(C)[C@@H]4CC[C@@]3(C)[C@]1(C)CC2 [MASLINIC ACID METHYL ESTER] | 100% | 0% | 65.6% | 100% | 100% | 0% | 100% | 0% | 80% |
| CC1(C)CC[C@]2(C(=O)O)CC[C@]3(C)C(=CC[C@@H]4[C@@]5(C)C[C@@H](O)[C@H](O)C(C)(C)[C@@H]5CC[C@]43C)[C@@H]2C1 [MASLINIC ACID] | 100% | 0% | 0% | 70% | 65.6% | 0% | 100% | 0% | 0% |
| C=C(C)[C@@H]1CC[C@]2(C(=O)OC)CC[C@]3(C)[C@H](CC[C@@H]4[C@@]5(C)CC[C@H](O)C(C)(C)[C@@H]5CC[C@]43C)[C@@H]12 [METHYL BETULINATE] | 100% | 80% | 71.5% | 100% | 100% | 0% | 100% | 0% | > 80% |
| COC(=O)[C@]12CCC(C)(C)C[C@H]1C1=CC[C@@H]3[C@@]4(C)CC[C@H](O)C(C)(C)[C@@H]4CC[C@@]3(C)[C@]1(C)CC2 [METHYL OLEANOLATE] | 100% | 0% | 29.5% | 80% | 46.3% | 0% | 100% | 0% | 50% |
